The target in this test is yeast Hsc70 (Ssa1p) (Saccharomyces cerevisiae, UniProt P10591). Put plainly: single-turnover […]ATP ATPase assay with J-domain co-chaperone. In kind it is biochemical.
Chain of yeast Hsc70 (Ssa1p) (P10591 2-642): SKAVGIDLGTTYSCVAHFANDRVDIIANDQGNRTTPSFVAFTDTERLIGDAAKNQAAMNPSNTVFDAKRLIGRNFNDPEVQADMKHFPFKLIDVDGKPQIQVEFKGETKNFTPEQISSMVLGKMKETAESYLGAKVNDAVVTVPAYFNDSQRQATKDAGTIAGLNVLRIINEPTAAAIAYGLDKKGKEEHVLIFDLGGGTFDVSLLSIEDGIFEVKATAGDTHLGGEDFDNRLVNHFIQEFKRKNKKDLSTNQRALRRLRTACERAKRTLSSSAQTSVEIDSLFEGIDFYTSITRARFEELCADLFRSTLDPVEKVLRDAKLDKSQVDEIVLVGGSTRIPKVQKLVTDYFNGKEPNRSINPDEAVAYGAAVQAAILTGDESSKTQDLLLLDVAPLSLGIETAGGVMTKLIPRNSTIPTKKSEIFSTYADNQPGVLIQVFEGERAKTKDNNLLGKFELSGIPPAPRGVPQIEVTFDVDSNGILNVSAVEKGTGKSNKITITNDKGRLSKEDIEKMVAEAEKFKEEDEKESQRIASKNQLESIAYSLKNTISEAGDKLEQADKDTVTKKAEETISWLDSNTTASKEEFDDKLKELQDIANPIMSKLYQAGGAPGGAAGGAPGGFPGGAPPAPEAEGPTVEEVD
Chain of yeast Hsc70 (Ssa1p) (P03070 whole entry, further chain): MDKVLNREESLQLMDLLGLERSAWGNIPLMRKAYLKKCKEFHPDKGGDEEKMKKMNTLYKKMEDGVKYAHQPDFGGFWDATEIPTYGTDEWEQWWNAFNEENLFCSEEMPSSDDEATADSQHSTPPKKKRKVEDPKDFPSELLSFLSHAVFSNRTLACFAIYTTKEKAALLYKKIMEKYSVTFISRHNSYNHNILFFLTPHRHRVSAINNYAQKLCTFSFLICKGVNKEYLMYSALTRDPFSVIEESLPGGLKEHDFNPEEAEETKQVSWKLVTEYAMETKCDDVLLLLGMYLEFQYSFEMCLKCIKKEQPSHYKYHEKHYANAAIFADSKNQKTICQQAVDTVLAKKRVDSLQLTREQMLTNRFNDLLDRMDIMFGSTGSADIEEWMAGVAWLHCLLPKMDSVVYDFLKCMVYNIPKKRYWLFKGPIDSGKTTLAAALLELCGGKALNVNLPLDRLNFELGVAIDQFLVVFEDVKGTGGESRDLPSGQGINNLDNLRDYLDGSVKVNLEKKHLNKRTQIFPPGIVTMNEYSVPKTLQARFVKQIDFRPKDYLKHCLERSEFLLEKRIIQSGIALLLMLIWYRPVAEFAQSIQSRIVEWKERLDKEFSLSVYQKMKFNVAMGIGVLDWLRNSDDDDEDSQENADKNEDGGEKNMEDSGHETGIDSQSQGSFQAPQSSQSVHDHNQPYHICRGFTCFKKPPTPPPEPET

The term Ki denotes the dissociation constant of the complex between target and ligand, obtained from inhibition or displacement. A high value points to weaker binding. On to `CCCCCCCCCCCCC/C=C/[C@@H](O)[C@H](COC1O[C@H](CO)[C@H](O)[C@H](OS(=O)(=O)O)[C@H]1O)NC(=O)CC12CC3CC(CC(C3)C1)C2` (stereo partly shown) [adaSGC], for which the Ki is ~10 µM.
